Data as given in patent US11414663B2, “Micro-RNA profiling, compositions, and methods of treating diseases” (GOWEY RESEARCH GROUP, PLLC, priority 2010, dated 2022).

Tested on: miRNA
Test: Pre and post microRNA profiles of patients after spine injections of rate limiters
Format: in vivo, human
Conditions: spine injections in patients; pre vs post miRNA profiles

Row | SMILES | Impact on genome using spine injections
1 | [Zn] [Zinc] | Decrease all miRNA except miR-486
2 | N[C@@H](CS)C(=O)O [Cysteine] | Increases ail miRNA
3 | [Mg+2] [Magnesium] | Increases all miRNA
4 | [Se] [Selenium] | Increases ail miRNA
5 | N[C@@H](CCC(=O)N[C@@H](CS)C(=O)NCC(=O)O)C(=O)O [Glutathione] | Decrease all miRNA

Same assay, conditions: spine injections; all other miRNA levels lowered

Row | SMILES | miR-486 level, pre-treatment vs post-treatment profile
6 | [Zn] [Zinc] | miR-486 had increased
